Data: paper PMC10787893, “Expression and characterization of the new antimicrobial peptide AP138L-arg26 anti Staphylococcus aureus” (Applied Microbiology and Biotechnology, 2024)
Converted amounts (≈) assume the structure as drawn. Bridge positions count the residues as written; N and C are the ends. Peptide text beside a SMILES is read from it.

Key:
S. aureus CVCC 546 [1] = assay: Growth curve of S. aureus; type: cell-based, Staphylococcus aureus; details: AP138L-arg26 8 µg/mL (2 × MIC), ceftiofur sodium 0.25 µg/mL (1/8 MIC), alone or combined; 1 × 10^5 CFU/mL
Method: Samples were taken during the logarithmic growth of S. aureus and diluted to 1 × 10^5 CFU/mL (Delpech et al. [2019]). Different concentrations of AP138L-arg26, ceftiofur sodium, or a combination of them with an equal volume of bacteria were added to a 96-well microplate. The growth curves were recorded using a fully automatic growth curve recording instrument.

S. aureus ATCC 43300 = assay: Post-antibiotic effect (PAE) assay; type: cell-based, Staphylococcus aureus
Excerpt: The method of PAE of AP138L-arg26 against MRSA ATCC 43300 or S. aureus CVCC 546 was described previously (Wang et al. [2018]). The formula is PAE = T − C (T is the time required for the number of colonies in the sample treatment group to increase by tenfold, and C is the time required for the untreated group).

S. aureus CVCC 546 [2] = assay: pH stability, MIC after treatment; type: physicochemical, Staphylococcus aureus
S. aureus = assay: Intracellular LDH activity; type: cell-based, Staphylococcus aureus; details: 6 h, treated cells/the control, n = 3
Method: As disruption of the cell membrane structure leads to the release of LDH from the cytoplasm into the culture medium, the detection of LDH in bacteria can further reveal the antibacterial mechanism (Shi et al. [2022]). Briefly, S. aureus cells were co-incubated with AP138L-arg26 for 6 h. Later, the pellets were collected and sonicated (3 s/10 s, 30 times). The intracellular LDH activity was detected using an Infinite M200 Microplate reader (Tecan, Luminescence signals). The calculated results of LDH% = treated cells/the control.

S. aureus CVCC 546 [3] = assay: Intracellular ATP determination; type: cell-based, Staphylococcus aureus
Excerpt: As ATP is the most direct source of energy for living organisms, the effect of antimicrobial peptides on ATP was explored with an ATP assay kit (Beyotime, Shanghai, China). […] The luminescence was detected using an Infinite M200 Microplate reader (Tecan, Luminescence signals).

[4] = system: Staphylococcus aureus E48; assay: MIC and MBC, broth microdilution; type: cell-based
Method: (§1) To determine the MIC values of AP138L-arg26, we used the broth microdilution technique as previously described (Andrews. [2001]; Wiegand et al. [2008]). In brief, AP138L-arg26 peptide were diluted from 1280 to 2.5 µg/mL and added to a 96-cells plate with 10 µL per well. The bacteria in the logarithmic stage were diluted to 10^5 CFU/mL with 90 µL per well. […] The MBC method was also based on the CLSI 2021 guidelines.

S. aureus CVCC 546 [5] = assay: Potassium ion (K+) leakage, ICP-MS; type: cell-based, Staphylococcus aureus
Excerpt: The integrity effect of antimicrobial peptide AP138L-arg26 on bacterial cell membranes was further verified, and the K^+ leakage assay was previously described (Li et al. [2020]). Briefly, the main procedures were as follows: Firstly, prepare the S. aureus CVCC 546 bacteria suspension at a concentration of 1 × 10^8 CFU/mL. […] Finally, the supernatants were detected using inductively coupled plasma mass spectrometry (ICP-MS) (SantaClara, CA, USA).

[6] = system: selected standard and clinical Gram-positive bacteria; assay: MIC/MBC summary over the panel of strains; type: cell-based, S. aureus, S. epidermidis, S. dysgalactiae, S. agalactiae
Method: as §1

S. aureus CVCC 546 [7] = assay: Serum stability, MIC after treatment; type: in vitro ADME, Staphylococcus aureus; details: then MIC
Excerpt: Table 4 The stability of AMPs in different environments | column: MIC

S. aureus CVCC 546 [8] = assay: Thermal stability, MIC after treatment; type: physicochemical, Staphylococcus aureus

CC[C@H](C)[C@@H]1NC(=O)[C@H](CO)NC(=O)[C@H](CCCCN)NC(=O)[C@@H]2CSSC[C@@H](C(=O)N[C@@H](Cc3ccc(O)cc3)C(=O)O)NC(=O)[C@H](CCCCN)NC(=O)[C@@H]3CSSC[C@H](NC(=O)[C@H](CCCNC(=N)N)NC(=O)[C@H](CC(C)C)NC(=O)[C@H](CC(=O)O)NC(=O)[C@H](CC(=O)O)NC(=O)[C@H](CCC(=O)O)NC(=O)[C@H](CO)NC(=O)[C@H](Cc4c[nH]c5ccccc45)NC(=O)[C@@H]4CCCN4C(=O)CNC(=O)[C@H](CC(N)=O)NC(=O)[C@@H](NC(=O)CNC(=O)[C@H](Cc4ccccc4)NC(=O)CN)CSSC[C@H](NC(=O)[C@H](Cc4ccc(O)cc4)NC(=O)CNC(=O)CNC(=O)[C@H](CCCNC(=N)N)NC(=O)[C@H](Cc4ccc(O)cc4)NC(=O)CNC(=O)[C@H](CCCCN)NC1=O)C(=O)N[C@@H](C)C(=O)N[C@@H](CCCCN)C(=O)NCC(=O)NCC(=O)N[C@@H](Cc1ccccc1)C(=O)N[C@@H](C(C)C)C(=O)N3)C(=O)N[C@@H](Cc1c[nH]cn1)C(=O)N[C@@H](CCCNC(=N)N)C(=O)N[C@@H](Cc1c[nH]cn1)C(=O)N2 [AP138L-arg26] (H-GFGCNGPWSEDDLRCHRHCKSIKGYRGGYCAKGGFVCKCY-OH; disulfide 4-30, 15-37, 19-39; N-terminus and C-terminus assumed)
effect on the growth of S. aureus CVCC 546 (S. aureus CVCC 546 [1]): little effect on the growth
PAE (S. aureus ATCC 43300; 1 × MIC, PAE = T − C): 0.9 h
PAE (S. aureus ATCC 43300; 2 × MIC, PAE = T − C): 1.25 h
PAE (S. aureus ATCC 43300; 4 × MIC, PAE = T − C): 1.91 h
PAE (S. aureus ATCC 43300; as given in the abstract, concentration not given): 1.91 h
antimicrobial activity after different pH values (2–10) (S. aureus CVCC 546 [2]; pH 2–10, 1 h, MIC assay): unaffected
MIC, pH 2 (S. aureus CVCC 546 [2]; peptide incubated at pH 2 for 1 h at 37 °C, then MIC assay): 8 µg/mL
MIC, pH 4 (S. aureus CVCC 546 [2]; peptide incubated at pH 4 for 1 h at 37 °C, then MIC assay): 16 µg/mL
MIC, pH 6 (S. aureus CVCC 546 [2]; peptide incubated at pH 6 for 1 h at 37 °C, then MIC assay): 16 µg/mL
MIC, pH 8 (S. aureus CVCC 546 [2]; peptide incubated at pH 8 for 1 h at 37 °C, then MIC assay): 8 µg/mL
MIC, pH 10 (S. aureus CVCC 546 [2]; peptide incubated at pH 10 for 1 h at 37 °C, then MIC assay): 16 µg/mL
LDH activity % (S. aureus; 1 × MIC): 24%
LDH activity % (S. aureus; 2 × MIC): 16%
LDH activity % (S. aureus; 4 × MIC): 16%
intracellular ATP, times higher than the untreated group (S. aureus CVCC 546 [3]; 1 × MIC): 7.6 times
intracellular ATP, times higher than the untreated group (S. aureus CVCC 546 [3]; 2 × MIC): 8.2 times
intracellular ATP, times higher than the untreated group (S. aureus CVCC 546 [3]; 4 × MIC (maximum)): 8.5 times
MBC ([4]; 99.99% of bacteria killed, plated on MHA): 8 µg/mL (≈ 1.8 µM)
MIC ([4]; broth microdilution, 10^5 CFU/mL, 37 °C, 18 h): 2 µg/mL (≈ 0.449 µM)
extracellular K+ leakage level (S. aureus CVCC 546 [5]; 2 × MIC, 37 °C, 1 × 10^8 CFU/mL, ICP-MS, untreated 0.02 mg/L): 0.05 mg/L
intracellular potassium leakage relative to control (S. aureus CVCC 546 [5]; as given in the abstract): 2.5 fold
MIC against Streptococcus ([6]; Streptococcus strains): 4 µg/mL (≈ 0.898 µM)
MBC relative to MIC ([6]; over the strains of Table 2): around fourfold higher than MICs
MIC against S. aureus ([6]; range over S. aureus strains): 2 to 16 µg/mL
MIC against selected standard and clinical Gram-positive bacteria ([6]; range over all strains of Table 2): 2 to 16 µg/mL
MIC against selected standard and clinical Gram-positive bacteria ([6]; range over all strains, converted from µg/mL): 0.45 to 3.6 µM
MIC, 25% serum (0.5 h) (S. aureus CVCC 546 [7]; peptide in 25% serum for 0.5 h): 8 µg/mL (≈ 1.8 µM)
MIC, 25% serum (1 h) (S. aureus CVCC 546 [7]; peptide in 25% serum for 1 h): 16 µg/mL (≈ 3.59 µM)
MIC, 25% serum (2 h) (S. aureus CVCC 546 [7]; peptide in 25% serum for 2 h): 16 µg/mL (≈ 3.59 µM)
MIC, 25% serum (4 h) (S. aureus CVCC 546 [7]; peptide in 25% serum for 4 h): 8 µg/mL (≈ 1.8 µM)
MIC, 25% serum (6 h) (S. aureus CVCC 546 [7]; peptide in 25% serum for 6 h): 16 µg/mL (≈ 3.59 µM)
MIC, 25% serum (8 h) (S. aureus CVCC 546 [7]; peptide in 25% serum for 8 h): 8 µg/mL (≈ 1.8 µM)
MIC, 50% serum (0.5 h) (S. aureus CVCC 546 [7]; peptide in 50% serum for 0.5 h): 8 µg/mL (≈ 1.8 µM)
MIC, 50% serum (1 h) (S. aureus CVCC 546 [7]; peptide in 50% serum for 1 h): 8 µg/mL (≈ 1.8 µM)
MIC, 50% serum (2 h) (S. aureus CVCC 546 [7]; peptide in 50% serum for 2 h): 8 µg/mL (≈ 1.8 µM)
MIC, 50% serum (4 h) (S. aureus CVCC 546 [7]; peptide in 50% serum for 4 h): 8 µg/mL (≈ 1.8 µM)
MIC, 50% serum (6 h) (S. aureus CVCC 546 [7]; peptide in 50% serum for 6 h): 8 µg/mL (≈ 1.8 µM)
MIC, 50% serum (8 h) (S. aureus CVCC 546 [7]; peptide in 50% serum for 8 h): 8 µg/mL (≈ 1.8 µM)
MIC, Heat (20 °C) (S. aureus CVCC 546 [8]; peptide incubated at 20 °C for 1 h, then MIC assay): 8 µg/mL (≈ 1.8 µM)
MIC, Heat (40 °C) (S. aureus CVCC 546 [8]; peptide incubated at 40 °C for 1 h, then MIC assay): 8 µg/mL (≈ 1.8 µM)
MIC, Heat (60 °C) (S. aureus CVCC 546 [8]; peptide incubated at 60 °C for 1 h, then MIC assay): 8 µg/mL (≈ 1.8 µM)
MIC, Heat (80 °C) (S. aureus CVCC 546 [8]; peptide incubated at 80 °C for 1 h, then MIC assay): 8 µg/mL (≈ 1.8 µM)
MIC, Heat (100 °C) (S. aureus CVCC 546 [8]; peptide incubated at 100 °C for 1 h, then MIC assay): > 64 µg/mL
MIC, Control (without treatment) (S. aureus CVCC 546 [8]; peptide without treatment, reference value of the stability tests): 8 µg/mL (≈ 1.8 µM)
